Results: the Kinase Knowledgebase extract (Sharma et al. 2016)

biological target: EGFR (UniProt P00533); assay: Inhibition of EGFR Kinase Activity
Sequence (P00533 whole entry, looked up): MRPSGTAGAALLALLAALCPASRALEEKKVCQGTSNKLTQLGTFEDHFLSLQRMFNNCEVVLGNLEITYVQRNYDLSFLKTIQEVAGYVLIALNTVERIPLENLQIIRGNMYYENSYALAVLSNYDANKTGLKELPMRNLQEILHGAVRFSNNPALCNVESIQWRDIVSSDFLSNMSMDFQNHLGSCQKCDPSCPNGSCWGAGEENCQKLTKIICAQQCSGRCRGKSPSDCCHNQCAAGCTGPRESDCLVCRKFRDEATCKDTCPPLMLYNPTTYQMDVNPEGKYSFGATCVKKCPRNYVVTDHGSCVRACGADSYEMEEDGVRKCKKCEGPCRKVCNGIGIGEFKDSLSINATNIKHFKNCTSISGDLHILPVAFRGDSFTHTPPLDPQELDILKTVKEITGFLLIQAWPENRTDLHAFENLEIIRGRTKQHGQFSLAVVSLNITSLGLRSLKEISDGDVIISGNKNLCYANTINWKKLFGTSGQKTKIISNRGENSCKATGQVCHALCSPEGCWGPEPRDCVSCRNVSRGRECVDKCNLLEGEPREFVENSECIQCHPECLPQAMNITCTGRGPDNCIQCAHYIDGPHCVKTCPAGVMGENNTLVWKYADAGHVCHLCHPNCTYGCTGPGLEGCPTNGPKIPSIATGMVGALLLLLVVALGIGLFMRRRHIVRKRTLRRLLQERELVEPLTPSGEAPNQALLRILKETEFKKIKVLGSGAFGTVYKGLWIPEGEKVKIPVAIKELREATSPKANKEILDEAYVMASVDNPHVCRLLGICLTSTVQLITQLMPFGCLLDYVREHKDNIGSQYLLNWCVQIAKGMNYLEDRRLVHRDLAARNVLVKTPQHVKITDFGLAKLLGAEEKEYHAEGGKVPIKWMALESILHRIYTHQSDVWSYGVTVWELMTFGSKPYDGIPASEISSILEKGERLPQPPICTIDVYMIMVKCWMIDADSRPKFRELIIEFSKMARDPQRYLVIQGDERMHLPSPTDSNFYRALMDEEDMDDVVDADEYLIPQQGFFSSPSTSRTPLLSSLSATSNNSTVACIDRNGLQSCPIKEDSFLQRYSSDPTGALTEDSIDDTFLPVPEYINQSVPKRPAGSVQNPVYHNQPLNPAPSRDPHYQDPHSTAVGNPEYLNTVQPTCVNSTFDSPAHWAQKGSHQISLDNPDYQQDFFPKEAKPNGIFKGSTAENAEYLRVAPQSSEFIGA

IC50	SMILES
< 10 µM	COc1ccc(Cl)c(N2C(=O)N(c3ccccc3)c3nc(Nc4ccccc4)ncc3C2C)c1 (configuration not stated)
< 10 µM	COc1ccc(N2C(=O)N([C@H]3CC[C@H](O)CC3)c3nc(Nc4ccccc4)ncc3C2C)cc1 (some centres not stated)
< 10 µM	COc1ccc(N2C(=O)N([C@H](C)CO)c3nc(Nc4ccccc4)ncc3[C@H]2C)cc1
< 10 µM	COc1ccc(N2C(=O)N(c3ccc(OC)cc3)C(C)c3cnc(Nc4ccccc4)nc32)cc1 (configuration not stated)
< 10 µM	COc1ccc(N2C(=O)N(c3cccc(C(N)=O)c3)c3nc(Nc4ccccc4)ncc3C2C)c(F)c1 (configuration not stated)
< 10 µM	COc1ccc(N2C(=O)N([C@H](C)CO)c3nc(Nc4ccccc4)ncc3[C@@H]2C)cc1
< 10 µM	COc1ccc(N2C(=O)N(c3ccccc3)c3nc(Nc4ccccc4)ncc3[C@H]2C)cc1
< 10 µM	COc1ccc(N2C(=O)N(c3cccc(C#N)c3)c3nc(Nc4ccccc4)ncc3C2C)cc1 (configuration not stated)
< 10 µM	COc1ccc(N2C(=O)N(c3ccccc3)c3nc(Nc4ccccc4)ncc3[C@@H]2C)cc1
< 10 µM	CCC1c2cnc(Nc3ccccc3)nc2N(c2ccccc2)C(=O)N1c1ccc(OC)cc1 (configuration not stated)
< 10 µM	COc1ccc(N2C(=O)N(c3ccccc3)c3nc(Nc4ccccc4)ncc3C2C)cc1 (configuration not stated)
< 10 µM	COc1ccc(N2C(=O)N(c3ccccc3)c3nc(Nc4ccccc4)ncc3C2C)c(F)c1 (configuration not stated)
< 10 µM	COc1ccc(N2C(=O)N(c3ccccc3)c3nc(Nc4ccccc4)ncc3C2C(C)C)cc1 (configuration not stated)
< 10 µM	COc1ccc(N2C(=O)N([C@@H](C)c3ccccc3)c3nc(Nc4ccccc4)ncc3C2C)cc1 (some centres not stated)
< 10 µM	COc1ccc(N2C(=O)N(c3ccccc3)c3nc(N(C(C)=O)c4ccccc4)ncc3C2C)cc1 (configuration not stated)
< 10 µM	COc1ccc(N2C(=O)N(c3cccc(C#N)c3)c3nc(Nc4ccccc4)ncc3C2C)c(F)c1 (configuration not stated)
< 10 µM	COc1ccc(N2C(=O)N(c3cccc(C(N)=O)c3)c3nc(Nc4ccccc4)ncc3C2C)cc1 (configuration not stated)
